Assay results: ChEMBL document CHEMBL1201862, “PubChem BioAssay data set” (2004)
The source made the active and inactive calls.

Tests used:
[1] = target: 26S proteasome non-ATPase regulatory subunit 14 (Homo sapiens, UniProt O00487); test: inhibition of proteasome subunit RPN11 – biochemical, fluorescence polarization, uHTS hits, confirmation (AID 602368); type: functional
[2] = target: Induced myeloid leukemia cell differentiation protein Mcl-1 (Homo sapiens, UniProt Q07820); test: blockers of MCL1 binding to BIM peptide – biochemical, fluorescence polarization, BIM-BH3 peptide, 1536-well, dose response (AID 2217)
Induced myeloid leukemia cell differentiation protein Mcl-1, sequence (Q07820 whole entry): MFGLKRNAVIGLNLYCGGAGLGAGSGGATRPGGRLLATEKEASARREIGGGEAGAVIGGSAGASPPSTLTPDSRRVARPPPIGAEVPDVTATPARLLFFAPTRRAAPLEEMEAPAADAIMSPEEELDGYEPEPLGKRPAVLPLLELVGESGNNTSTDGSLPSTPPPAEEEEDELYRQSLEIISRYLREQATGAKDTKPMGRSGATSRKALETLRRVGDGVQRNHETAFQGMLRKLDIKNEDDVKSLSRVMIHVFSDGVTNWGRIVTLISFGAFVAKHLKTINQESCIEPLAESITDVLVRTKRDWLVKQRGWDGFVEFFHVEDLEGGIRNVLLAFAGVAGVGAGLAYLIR

[3] = target: 72 kDa type IV collagenase (Homo sapiens, UniProt P08253); test: Dose Response validation of uHTS RPN11 inhibitor hits using a MMP-2 Fluorescence assay.; type: functional
72 kDa type IV collagenase, sequence (P08253 whole entry): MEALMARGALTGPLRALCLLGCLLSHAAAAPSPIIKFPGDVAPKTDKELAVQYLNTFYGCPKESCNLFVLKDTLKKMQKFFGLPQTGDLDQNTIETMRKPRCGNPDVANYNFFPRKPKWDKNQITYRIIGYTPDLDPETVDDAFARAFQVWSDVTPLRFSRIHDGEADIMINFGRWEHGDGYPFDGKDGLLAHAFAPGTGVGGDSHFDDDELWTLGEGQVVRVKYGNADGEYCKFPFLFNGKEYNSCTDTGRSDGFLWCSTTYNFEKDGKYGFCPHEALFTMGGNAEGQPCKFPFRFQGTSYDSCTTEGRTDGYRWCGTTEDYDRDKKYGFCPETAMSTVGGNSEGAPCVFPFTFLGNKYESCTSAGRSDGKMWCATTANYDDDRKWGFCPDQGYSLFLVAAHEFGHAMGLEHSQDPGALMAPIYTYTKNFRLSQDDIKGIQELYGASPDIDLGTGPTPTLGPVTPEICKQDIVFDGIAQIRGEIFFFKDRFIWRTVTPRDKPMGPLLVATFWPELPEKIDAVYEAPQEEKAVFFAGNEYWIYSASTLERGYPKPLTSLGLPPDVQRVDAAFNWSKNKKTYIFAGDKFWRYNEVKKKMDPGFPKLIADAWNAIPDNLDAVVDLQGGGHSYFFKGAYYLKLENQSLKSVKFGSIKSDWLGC

[4] = target: DNA (cytosine-5)-methyltransferase 1 (Homo sapiens, UniProt P26358); test: inhibition of DNA methylation by DNMT1 – biochemical, fluorescent molecular beacon, confirmation (AID 602386); type: functional
Prothrombin = Prothrombin (Bos taurus, UniProt P00735); test: thrombin protease inhibitors – biochemical, fluorescence polarization, uHTS hits, dose response (AID 602369); type: functional
Hexokinase HKDC1 = Hexokinase HKDC1 (Homo sapiens, UniProt Q2TB90); test: inhibition of HKDC1 glucose phosphorylation – biochemical, W721R variant, dose response (AID 504729); type: functional
Hexokinase HKDC1, sequence (Q2TB90 whole entry): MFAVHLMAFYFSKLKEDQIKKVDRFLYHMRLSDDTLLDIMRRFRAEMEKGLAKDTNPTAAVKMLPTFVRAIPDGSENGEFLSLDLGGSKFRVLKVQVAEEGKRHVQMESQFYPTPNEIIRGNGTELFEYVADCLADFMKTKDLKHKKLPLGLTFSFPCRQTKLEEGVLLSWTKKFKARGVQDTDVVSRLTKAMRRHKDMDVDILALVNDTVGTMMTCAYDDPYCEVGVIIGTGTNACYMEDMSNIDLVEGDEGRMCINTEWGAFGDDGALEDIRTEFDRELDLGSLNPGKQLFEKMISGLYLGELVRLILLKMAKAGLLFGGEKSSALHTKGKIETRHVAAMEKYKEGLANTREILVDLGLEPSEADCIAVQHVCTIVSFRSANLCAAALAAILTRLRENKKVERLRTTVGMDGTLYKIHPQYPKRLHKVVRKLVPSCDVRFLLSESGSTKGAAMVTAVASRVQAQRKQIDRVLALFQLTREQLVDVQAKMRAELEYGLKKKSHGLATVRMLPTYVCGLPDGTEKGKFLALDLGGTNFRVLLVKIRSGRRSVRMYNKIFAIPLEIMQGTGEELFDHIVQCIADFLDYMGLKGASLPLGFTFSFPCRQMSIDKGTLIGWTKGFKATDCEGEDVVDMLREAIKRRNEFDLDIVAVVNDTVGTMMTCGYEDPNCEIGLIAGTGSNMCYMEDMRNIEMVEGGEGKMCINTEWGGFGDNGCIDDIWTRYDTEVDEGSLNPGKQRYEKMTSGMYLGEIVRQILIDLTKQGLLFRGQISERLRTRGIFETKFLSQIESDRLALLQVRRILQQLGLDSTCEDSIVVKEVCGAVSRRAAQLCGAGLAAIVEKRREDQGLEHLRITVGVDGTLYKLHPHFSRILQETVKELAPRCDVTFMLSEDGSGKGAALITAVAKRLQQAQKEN

Bcl-2-like protein 1 = Bcl-2-like protein 1 (Homo sapiens, UniProt Q07817); test: blockers of BCLXL peptide binding – biochemical, fluorescence polarization, 1536-well, selectivity assay for MCL1 inhibitor project, dose response (AID 2218)
Bcl-2-like protein 1, sequence (Q07817 whole entry): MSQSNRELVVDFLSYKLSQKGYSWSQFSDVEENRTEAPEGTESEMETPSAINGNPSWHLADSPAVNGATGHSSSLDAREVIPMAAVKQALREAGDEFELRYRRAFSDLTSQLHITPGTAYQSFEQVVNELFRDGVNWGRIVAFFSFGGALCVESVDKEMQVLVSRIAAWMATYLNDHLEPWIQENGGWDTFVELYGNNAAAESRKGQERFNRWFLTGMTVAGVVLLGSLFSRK

[5] = target: Scavenger receptor class B member 1 (Mus musculus, UniProt Q61009); test: mouse SR-BI DiI-HDL uptake blockers – ldlA[mSR-BI] cells, fluorescence, cherry pick, dose response (AID 493194); type: functional, cell-based;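 further: cellular uptake of fluorescent DiI-labeled HDL measured as cell fluorescence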
Scavenger receptor class B member 1, sequence (Q61009 whole entry): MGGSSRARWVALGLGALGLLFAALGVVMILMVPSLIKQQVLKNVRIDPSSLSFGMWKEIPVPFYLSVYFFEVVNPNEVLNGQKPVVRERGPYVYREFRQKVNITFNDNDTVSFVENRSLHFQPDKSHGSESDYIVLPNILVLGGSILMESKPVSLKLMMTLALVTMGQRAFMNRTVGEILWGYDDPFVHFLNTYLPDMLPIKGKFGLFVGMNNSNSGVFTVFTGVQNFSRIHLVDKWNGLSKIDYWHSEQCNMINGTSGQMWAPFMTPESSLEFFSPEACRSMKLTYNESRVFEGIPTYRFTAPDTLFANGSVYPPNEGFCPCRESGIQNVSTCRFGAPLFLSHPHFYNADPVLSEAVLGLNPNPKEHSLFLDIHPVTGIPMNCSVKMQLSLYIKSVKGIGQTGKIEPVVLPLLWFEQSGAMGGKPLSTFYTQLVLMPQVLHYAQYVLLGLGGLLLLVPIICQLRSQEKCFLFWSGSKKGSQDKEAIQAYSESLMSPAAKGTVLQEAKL

[6] = Luminescence Cell-Based Dose Retest to Confirm Inhibitors of Cancer Stem Cells. [Related pubchem assays (depositor defined):AID2717, AID2721]; type: functional; conditions: Homo sapiens
[7] = target: T1, Tyrosine-protein phosphatase non-receptor type 7 (Homo sapiens, UniProt P35236); type: functional
T1 sequence (P35236 whole entry): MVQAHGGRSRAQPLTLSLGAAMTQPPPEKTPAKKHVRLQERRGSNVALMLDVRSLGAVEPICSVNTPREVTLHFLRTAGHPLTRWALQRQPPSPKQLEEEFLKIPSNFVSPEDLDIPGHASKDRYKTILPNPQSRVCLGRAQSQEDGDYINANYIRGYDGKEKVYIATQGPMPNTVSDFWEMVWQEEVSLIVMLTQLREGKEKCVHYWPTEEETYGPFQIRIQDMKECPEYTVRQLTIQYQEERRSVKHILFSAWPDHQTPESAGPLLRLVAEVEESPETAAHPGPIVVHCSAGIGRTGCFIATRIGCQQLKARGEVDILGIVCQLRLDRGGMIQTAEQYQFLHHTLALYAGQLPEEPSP

[8] = target: Heat shock cognate 71 kDa protein (Homo sapiens, UniProt P11142); test: In Vitro Hsc70 Dose Response Fluorescence Polarization Assay. [Related pubchem assays: 1072 ]
Heat shock cognate 71 kDa protein, sequence (P11142 whole entry): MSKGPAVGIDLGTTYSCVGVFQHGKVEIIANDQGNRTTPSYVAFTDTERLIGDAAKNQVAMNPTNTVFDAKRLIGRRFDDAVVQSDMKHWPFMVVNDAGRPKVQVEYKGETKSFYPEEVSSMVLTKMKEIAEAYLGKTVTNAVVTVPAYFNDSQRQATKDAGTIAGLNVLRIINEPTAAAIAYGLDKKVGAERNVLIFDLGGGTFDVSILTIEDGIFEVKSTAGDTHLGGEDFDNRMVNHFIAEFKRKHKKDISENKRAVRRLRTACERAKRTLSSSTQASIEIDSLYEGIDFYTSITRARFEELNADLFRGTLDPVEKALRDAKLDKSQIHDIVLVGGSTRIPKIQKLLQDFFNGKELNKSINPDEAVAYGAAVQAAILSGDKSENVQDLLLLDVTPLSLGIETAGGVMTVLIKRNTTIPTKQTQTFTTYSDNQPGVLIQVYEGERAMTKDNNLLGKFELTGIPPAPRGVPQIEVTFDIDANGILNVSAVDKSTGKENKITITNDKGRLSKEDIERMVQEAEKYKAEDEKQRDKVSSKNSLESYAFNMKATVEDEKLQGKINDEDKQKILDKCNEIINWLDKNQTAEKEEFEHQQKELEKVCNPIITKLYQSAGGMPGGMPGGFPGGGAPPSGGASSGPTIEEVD

[9] = target: T2, Dual specificity protein phosphatase 6 (Rattus norvegicus, UniProt Q64346); type: functional
T2 sequence (Q64346 whole entry): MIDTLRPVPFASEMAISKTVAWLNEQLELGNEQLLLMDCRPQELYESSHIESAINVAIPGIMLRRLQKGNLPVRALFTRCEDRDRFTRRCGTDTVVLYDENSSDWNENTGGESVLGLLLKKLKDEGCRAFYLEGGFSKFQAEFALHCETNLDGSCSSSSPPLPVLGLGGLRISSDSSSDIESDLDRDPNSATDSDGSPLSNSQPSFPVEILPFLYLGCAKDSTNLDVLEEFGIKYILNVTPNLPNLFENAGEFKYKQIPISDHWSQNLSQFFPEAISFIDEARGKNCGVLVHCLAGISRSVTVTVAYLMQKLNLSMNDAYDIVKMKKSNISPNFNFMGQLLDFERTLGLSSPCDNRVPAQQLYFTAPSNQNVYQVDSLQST

[10] = target: Glyceraldehyde-3-phosphate dehydrogenase (Homo sapiens, UniProt P04406)
Glyceraldehyde-3-phosphate dehydrogenase, sequence (P04406 whole entry): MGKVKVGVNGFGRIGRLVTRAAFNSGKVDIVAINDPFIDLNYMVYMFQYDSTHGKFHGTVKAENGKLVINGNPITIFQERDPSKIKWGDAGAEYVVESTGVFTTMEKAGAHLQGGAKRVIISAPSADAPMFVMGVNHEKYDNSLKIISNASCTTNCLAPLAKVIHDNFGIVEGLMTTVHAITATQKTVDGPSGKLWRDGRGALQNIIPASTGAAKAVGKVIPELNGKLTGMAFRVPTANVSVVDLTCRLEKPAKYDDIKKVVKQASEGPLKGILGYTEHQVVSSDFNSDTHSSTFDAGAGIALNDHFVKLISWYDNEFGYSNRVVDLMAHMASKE

[11] = target: T2, Dual specificity protein phosphatase 6
[12] = target: Heat shock 70 kDa protein 1A (Homo sapiens, UniProt P0DMV8); test: inhibition of Hsp70 binding activity – biochemical, fluorescence polarization, SAR follow-up (AID 1072)
SUMO-activating enzyme [13] = target: T3, SUMO-activating enzyme (Homo sapiens, UniProt Q9UBT2); test: blockers of SAE1/SAE2–UBC9 SUMO transfer – biochemical, HTRF, uHTS, primary screen (AID 2006); type: protein-complex assay
T3 sequence (Q9UBE0 whole entry): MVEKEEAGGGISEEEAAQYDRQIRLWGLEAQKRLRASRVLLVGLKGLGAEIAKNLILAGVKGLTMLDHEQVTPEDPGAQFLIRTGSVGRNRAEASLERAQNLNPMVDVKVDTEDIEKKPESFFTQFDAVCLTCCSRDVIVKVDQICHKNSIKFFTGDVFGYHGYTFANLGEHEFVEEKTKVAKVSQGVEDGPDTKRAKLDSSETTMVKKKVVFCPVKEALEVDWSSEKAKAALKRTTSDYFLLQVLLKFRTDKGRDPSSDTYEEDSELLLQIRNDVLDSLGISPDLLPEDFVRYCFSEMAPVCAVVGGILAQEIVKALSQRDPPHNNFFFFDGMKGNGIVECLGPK
T3 sequence (Q9UBT2 whole entry): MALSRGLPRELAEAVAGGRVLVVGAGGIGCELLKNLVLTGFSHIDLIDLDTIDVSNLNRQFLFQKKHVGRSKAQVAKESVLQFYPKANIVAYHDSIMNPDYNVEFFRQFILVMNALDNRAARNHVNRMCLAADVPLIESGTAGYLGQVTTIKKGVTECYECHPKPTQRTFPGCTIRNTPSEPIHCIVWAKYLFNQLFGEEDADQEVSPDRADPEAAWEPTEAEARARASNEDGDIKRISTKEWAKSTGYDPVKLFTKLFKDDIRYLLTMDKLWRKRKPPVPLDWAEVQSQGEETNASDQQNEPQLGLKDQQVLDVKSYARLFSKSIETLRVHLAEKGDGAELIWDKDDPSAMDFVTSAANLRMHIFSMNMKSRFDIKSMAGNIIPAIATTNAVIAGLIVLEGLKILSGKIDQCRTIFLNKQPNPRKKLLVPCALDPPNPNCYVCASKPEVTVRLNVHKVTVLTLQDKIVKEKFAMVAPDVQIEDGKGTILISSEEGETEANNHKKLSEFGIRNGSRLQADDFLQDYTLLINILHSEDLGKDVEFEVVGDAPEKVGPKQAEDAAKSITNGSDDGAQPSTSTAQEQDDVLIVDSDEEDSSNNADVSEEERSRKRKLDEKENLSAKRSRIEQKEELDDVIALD

SUMO-activating enzyme [14] = target: T3, SUMO-activating enzyme; test: blockers of UBC9-mediated SUMO conjugation – biochemical, AlphaScreen, SUMOylation inhibitor project, confirmation (AID 2018); type: functional
Streptococcus [15] = test: GAS UMAA2166 growth inhibition – luminescence, BacTiterGlo, counter-screen for streptokinase expression inhibitor project, dose response (AID 1915); type: functional, organism-based;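 further: potency for reduction of bacterial viability or growth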
[16] = tested on: Streptococcus sp. 'group A'; test: Streptococcus pyogenes SK(-)GAS viability under kanamycin – luminescence, BacTiterGlo, confirmation, counter-screen for streptokinase expression inhibitor project, dose response (AID 1900); type: functional, organism-based
Streptococcus [17] = test: Luminescence Microorganism-Based Dose Response Follow up to Identify Compounds Cytotoxic to Streptococcus. [Related pubchem assays: 1677 (Project Summary), 1915, 1914, 1902 (Retest at Dose), 1900 (Counter Screen), 1662 (Primary HTS)]; type: functional, organism-based
Streptokinase A = target: T4, Streptokinase A (Streptococcus pyogenes serotype M1, UniProt P10520); test: viability-normalized secreted streptokinase activity reduction – plasminogen activation absorbance, OD405, dose response (AID 1914); type: functional, Streptococcus pyogenes M1 GAS;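 further: secreted streptokinase activity via plasminogen activation per viability signal from cell pellet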
T4 sequence (P10520 whole entry): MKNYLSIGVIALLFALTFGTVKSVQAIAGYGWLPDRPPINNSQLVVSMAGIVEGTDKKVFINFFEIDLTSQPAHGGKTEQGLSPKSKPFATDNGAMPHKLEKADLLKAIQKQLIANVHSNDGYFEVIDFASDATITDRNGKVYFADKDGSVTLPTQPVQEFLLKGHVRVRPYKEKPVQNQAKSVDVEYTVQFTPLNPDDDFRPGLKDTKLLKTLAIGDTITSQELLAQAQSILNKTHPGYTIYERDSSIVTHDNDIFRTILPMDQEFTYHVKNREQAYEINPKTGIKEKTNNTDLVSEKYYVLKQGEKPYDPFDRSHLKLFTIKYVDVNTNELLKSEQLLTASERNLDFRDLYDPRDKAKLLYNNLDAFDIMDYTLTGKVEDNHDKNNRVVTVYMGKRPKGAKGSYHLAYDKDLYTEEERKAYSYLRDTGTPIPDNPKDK

26S proteasome non-ATPase regulatory subunit 14, sequence (O00487 whole entry): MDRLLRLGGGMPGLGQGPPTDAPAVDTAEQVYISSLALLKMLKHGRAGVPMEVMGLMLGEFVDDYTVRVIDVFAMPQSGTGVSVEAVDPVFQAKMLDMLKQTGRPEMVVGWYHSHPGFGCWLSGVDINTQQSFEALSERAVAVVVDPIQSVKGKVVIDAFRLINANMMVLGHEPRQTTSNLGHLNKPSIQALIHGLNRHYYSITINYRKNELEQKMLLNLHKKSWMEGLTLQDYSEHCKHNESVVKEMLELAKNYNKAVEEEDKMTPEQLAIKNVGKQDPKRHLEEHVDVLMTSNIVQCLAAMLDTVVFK

In the case of N#Cc1c(SCC(=O)Nc2nc3ccc(Br)cc3s2)sc2c(O)cc(=O)[nH]c12, the IC50 [1] is reported as 12.8 µM (active), the IC50 [2] is reported as > 109 µM (not active) and the IC50 [3] is reported as 3.94 µM (active). The IC50 [4] was 8.28 µM (active), the IC50 (Prothrombin) was 71.2 µM (active) and the IC50 (Hexokinase HKDC1) was 24.8 µM (inactive). The IC50 (Bcl-2-like protein 1) was > 109 µM (not active).
For OC1CCN(c2cc(-c3ccccc3)nc3cc(-c4ccc(F)cc4)nn23)CC1, the AC50 [5] was 11.8 µM (active) and the AC50 [6] was 4.72 µM (active).
For O=C(O)c1ccc([N+](=O)[O-])c2c1NC(C(=O)O)C1CC=CC21 (stereo not drawn), the IC50 [7] was 92.9 µM (active), the IC50 [8] was > 100 µM (not active) and the IC50 [9] was > 100 µM (inactive). The IC50 [10] was > 100 µM (not active), the IC50 [11] was > 100 µM (inactive) and the IC50 [12] was 90.6 µM (active).
With COc1ccc(OC)c(/C=C2\SC(NNC(=O)c3ccc4ccccc4c3)=NC2=O)c1 the IC50 (SUMO-activating enzyme [13]) was 18.1 µM (active), the AC50 [6] was 2.36 µM (active) and the IC50 (SUMO-activating enzyme [14]) was 2.14 µM (active).
With CCCCn1c(=O)c(C(=O)NCc2ccccc2)c(O)c2ccccc21 the EC50 (Streptococcus [15]) was > 150 µM (inconclusive), the EC50 [16] was 17.5 µM (active) and the AC50 [6] was 8.37 µM (active). The EC50 (Streptococcus [17]) was > 500 µM (not active) and the EC50 (Streptokinase A) was 6.35 µM (active).
